Test results published in patent publication US20250075235A1, “PRODUCTION OF ETHANOL WITH ONE OR MORE CO-PRODUCTS IN YEAST” (Braskem S.A., priority 2020, published 2025).

How the values were obtained:
[1] = tested on: industrial ethanol-producing yeast strain PE-2; assay: Laboratory simulation of yeast sugar-ethanol fermentation with exogenously added alcohols; format: cell-based, Saccharomyces cerevisiae; details: 1 L bioreactor, 224 g/L glucose, pH 4.5, 32° C., 70 hours; about 16 g alcohol added
Procedure: The experiment was performed using a 1 L bioreactor with 0.7 L as a final volume. The pH was controlled at 4.5 by adding NaOH 25% w/w, 32° C. temperature and 300 rpm stirring. The industrial ethanol-producing yeast strain used was PE-2, with an initial pitch of 0.7 g/L DWC and the culture medium was YNB without amino acids. The final sugar concentration was 224 g/L glucose. The experiment was performed under aseptic conditions. The bioreactor was first filled with 650 ml of YNB medium plus sugar, and after pH and temperature stabilization, a suspension of 50 mL with the yeast inoculum was added into the bioreactor. […] Each solution followed the profile: 10 hours since inoculation, 0.2 mL/min; from 11 hours to 15 hours, 0.4 mL/min; from 16 hours to 40 hours, 0.6 mL/min; and from 41 hours to 46 hours, 0.2 mL/min. This profile was added to simulate an ethanol production profile of PE-2 yeast. The fermentation was ended with 70 hours of fermentation run.

[2] = tested on: industrial ethanol-producing yeast strain PE-2; assay: Alcohol tolerance experiment: sugar (glucose) consumption of yeast cultures with added alcohols; format: cell-based, Saccharomyces cerevisiae; details: for Sugar Consumption: PE-2, YNB medium, 40 g/L glucose, 32° C., 8-9 hours, no consumption = lethal concentration; for Toxicity related to ethanol (times more inhibition than ethanol): ratio of sugar consumption inhibition per unit of alcohol to that of ethanol; for Sugar consumption inhibition per unit of alcohol regarding the Control (+) condition (no alcohol added) / Slope (linear regression of sugar consumption inhibition against alcohol concentration): samples two hours after inoculation; for Slope (linear regression of sugar consumption inhibition against alcohol concentration): alcohol concentration in g/L
Procedure: An alcohol tolerance experiment was conducted to understand the negative effects of n-propanol (i.e., 1-propanol), 2-propanol, and 2-butanol compared to ethanol in Saccharomyces cerevisiae. Ethanol, which is a natural product (or native product) produced during sugar-ethanol fermentation is generally well-tolerated by yeast such as S. cerevisiae. However, existing approaches to produce non-natural chemicals such as C3, C4, or C5 alcohols, ketones, organic acids, or other non-natural products (e.g., alcohols other than ethanol) by using genetically modified yeast are usually impacted negatively by the higher toxicity compared to ethanol of such non-natural chemicals or alcohols (e.g., n-propanol and 2-propanol) to the yeast cell-growth and/or performance.
Several concentrations of n-propanol, 2-propanol, 2-butanol and ethanol was tested in yeast cultures. The experiment was conducted using the industrial ethanol-producing yeast strain PE-2 in a 250 mL shaken flask with 50 mL of YNB medium having 40g/L glucose at 32° C. The culture was conducted during 8-9 hours with an initial OD600 nm=12 (OD=optical density). Samples were taken in adequate intervals and analyzed by HPLC to measure glucose, ethanol, n-propanol, 2-propanol and 2-butanol. The experiment was performed according to the parameters in Table 13, in duplicate. The conditions at which no sugar consumption was observed were considered a lethal concentration and were excluded from the analysis.
The percentage of glucose consumption inhibition was assessed for various concentrations of alcohols. Samples were tested two hours after inoculation. At this point, glucose had not been totally consumed.

## CCO [Condition 1, ethanol]
[1]
  Ethanol produced: 80.9 g
  Ethanol yield: 0.5 g/g
  Volumetric productivity: 1.4 g/Lh

## CC(C)O [2-Propanol, isopropyl alcohol]
[2]; alcohol 20 g/L
  Sugar Consumption: Yes
[2]; alcohol 40 g/L
  Sugar Consumption: Yes
[2]; alcohol 60 g/L
  Sugar Consumption: Yes
[2]; alcohol 80 g/L
  Sugar Consumption: Yes
[2]
  Toxicity related to ethanol (times more inhibition than ethanol): 1.45
  Sugar consumption inhibition per unit of alcohol regarding the Control (+) condition (no alcohol added): 0.90% per g · L^−1 of alcohol
  Slope (linear regression of sugar consumption inhibition against alcohol concentration): 0.009

## CCO [Ethanol, ethanol]
[2]; alcohol 20 g/L
  Sugar Consumption: Yes
[2]; alcohol 40 g/L
  Sugar Consumption: Yes
[2]; alcohol 60 g/L
  Sugar Consumption: Yes
[2]; alcohol 80 g/L
  Sugar Consumption: Yes
[2]; alcohol 120 g/L
  Sugar Consumption: Yes
[2]
  Sugar consumption inhibition per unit of alcohol regarding the Control (+) condition (no alcohol added): 0.62% per g · L^−1 of alcohol
  Slope (linear regression of sugar consumption inhibition against alcohol concentration): 0.0062

## n-propanol
[2]; alcohol 20 g/L
  Sugar Consumption: Yes
[2]; alcohol 40 g/L
  Sugar Consumption: Yes
[2]; alcohol 60 g/L
  Sugar Consumption: Yes
[2]; alcohol 80 g/L
  Sugar Consumption: No
[2]
  Toxicity related to ethanol (times more inhibition than ethanol): 2.16
  Sugar consumption inhibition per unit of alcohol regarding the Control (+) condition (no alcohol added): 1.34% per g · L^−1 of alcohol
  Slope (linear regression of sugar consumption inhibition against alcohol concentration): 0.0134

## 2-butanol
[2]; alcohol 20 g/L
  Sugar Consumption: Yes
[2]; alcohol 40 g/L
  Sugar Consumption: Yes
[2]; alcohol 60 g/L
  Sugar Consumption: No
[2]; alcohol 80 g/L
  Sugar Consumption: No
[2]
  Toxicity related to ethanol (times more inhibition than ethanol): 2.94
  Sugar consumption inhibition per unit of alcohol regarding the Control (+) condition (no alcohol added): 1.82% per g · L^−1 of alcohol
  Slope (linear regression of sugar consumption inhibition against alcohol concentration): 0.0182
